Data reported in patent US11771692B2, “N-hydroxyethyl didehydroazapodophyllotoxins as GBP1 inhibitors and methods of overcoming treatment resistance in cancer” (The Board of Trustees of the Leland Stanford Junior …, priority 2018, dated 2023).

Legend:
ID-8 tumor xenograft = test: Ovarian ID-8 tumor xenograft in C57BL6 mice; format: in vivo; settings: ID-8, 20 mg/kg IP daily
Source text: An immunocompetent syngeneic mouse model was used to evaluate in vivo antitumor effect of SU093 and SU056 (also referred to herein as Compound (I)) for ovarian cancer. C57BL6 female mice (n=5/group) were subcutaneously injected in the right flank with 5×10^6 ID-8 cells mixed with matrigel. From the day following xenograft implantation, mice were monitored regularly for tumor growth and once the tumors reached approximately 100 mm^3, the mice were randomly divided into three groups and respective treatments were given.
Group I (vehicle control): 100 μl of 10% PEG300 (w/v) in saline;
Group II: mice treated with SU093 (20 mg/kg); and
Group III: mice treated with SU056 (20 mg/kg).
Doses were administered intraperitoneally (IP) for 7 days/week for 42 days and the mice were sacrificed on day 43. Tumor sizes were measured twice weekly using digital caliper and tumor volume was calculated by the formula: 0.5236 L1 (L2)^2, where L1 is long diameter, and L2 is short diameter.

SCC-90 tumor xenograft = test: Head and neck SCC-90 tumor xenograft in nude mice; format: in vivo; settings: SCC-90, nude mice
Procedure: An immunodeficient nude mice model was also used to study the in vivo potential of SU093 and SU056 for head and neck cancer. Nude mice (n=3/group) were subcutaneously injected in the right flank with 5×10^6 SCC-90 cells mixed with matrigel and observed regularly until the tumor size reached about 200 mm^3. The treatment regime with drugs including dose, formulation and route of delivery was similar to ovarian cancer study discussed above. Doses of SU093 and SU056 were administered daily until 35 days and mice were sacrificed thereafter. […] At the end of 35 days, calculated tumor volume/mouse was 860.33±21.78 mm^3, 694.67±14.64 mm^3, and 435.00±10.81 mm^3 for control, SU093 and SU056 treatment groups, respectively. This equates to a 20% and 50% reduction in tumor volume for SU093 and SU056 treatment groups, respectively. A decrease in tumor weight of about 21% (P value not significant) and 54% (P<0.002) was also observed for the SU093 and SU56 treatment groups, respectively.

GBP1 = test: cell-based reporter assay, OVCAR-8 stably transfected with GBP-1-luciferase; settings: OVCAR-8 GBP-1-luciferase
Source text: Exemplary compounds (1)-(17) and previously identified compound SU093 (Andreoli, M., Persico, M.; Kumar, A.; Orteca, N.; Kumar, V.; Pepe, A.; Mahalingam, S.; Alegria, A. E.; Petrella, L.; Sevciunaite, L.; Camperchioli, A.; Mariani, M.; Di Dato, A.; Novellino, E.; Scambia, G., Malhotra, S. V.; Ferlini, C.; Fattorusso, C., Identification of the First Inhibitor of the GBP1:PIM1 Interaction. Implications for the Development of a New Class of Anticancer Agents against Paclitaxel Resistant Cancer Cells. Journal of Medicinal Chemistry 2014, 57 (19), 7916-7932) were tested for GBP1 inhibition using a cell-based reporter assay in ovarian cancer cell line OVCAR-8 stably transfected with GBP-1-luciferase. Tables 1 and 2 below outlines the percentage of GBP1 expression in OVCAR-8 cells for each of the 17 compounds tested.

## O=C1OCC2=C1C(c1cccc(F)c1)c1cc3c(cc1N2CCO)OCO3 (centres unmarked) [SU056]
ID-8 tumor xenograft; 42 days, vs control
  reduction in tumor volume: 49.55%
  tumor weight decreased: 53.44%
ID-8 tumor xenograft; end of 6 weeks
  tumor volume/mouse: 257.39±21.6 mm^3
SCC-90 tumor xenograft; 20 mg/kg IP daily, end of 35 days
  tumor volume/mouse: 435.00±10.81 mm^3
SCC-90 tumor xenograft; 35 days, vs control
  decrease in tumor weight: ~54%
  reduction in tumor volume: 50%
GBP1; 5 nM
  % GBP1 expression OVCAR-8 @5 nM: 54.16%
GBP1; 10 nM
  % GBP1 expression OVCAR-8 @10 nM: 43.36%
